Measurements: US5916873A, “Teicoplanin derivatives” (Eli Lilly and Company, priority 1998, dated 1999)
Converted amounts (≈) assume the structure as drawn.

What was measured:
[1] = tested on: E. f. 180-1; test: standard broth micro-dilution MIC; type: cell-based; conditions: Table 2B; strain 180-1
Description: (§1) The antibacterial efficacy of the present teicoplanin derivatives is illustrated by the following tables. The minimal inhibitory concentrations (MICs) were determined using a standard broth micro-dilution assay.

[2] = tested on: E. f. 180; test: standard broth micro-dilution MIC; type: cell-based; conditions: Table 2B; strain 180
Description: as §1

[3] = tested on: E. f. 2041; test: standard broth micro-dilution MIC; type: cell-based; conditions: Table 2B; strain 2041
Description: as §1

[4] = tested on: E. f. 276; test: standard broth micro-dilution MIC; type: cell-based; conditions: Table 2C; strain 276
Description: as §1

[5] = tested on: E. gall. 245; test: standard broth micro-dilution MIC; type: cell-based; conditions: Table 2C; strain 245
Description: as §1

[6] = tested on: EC14; test: standard broth micro-dilution MIC; type: cell-based; conditions: Table 2C; strain EC14
Description: as §1

[7] = tested on: H. influ RD; test: standard broth micro-dilution MIC; type: cell-based; conditions: Table 2C; strain RD
Description: as §1

[8] = tested on: M. cat M12; test: standard broth micro-dilution MIC; type: cell-based; conditions: Table 2C; strain M12
Description: as §1

[9] = tested on: S. aureus 446; test: standard broth micro-dilution MIC; type: cell-based; conditions: Table 2A; strain 446
Description: as §1

[10] = tested on: S. aureus 447; test: standard broth micro-dilution MIC; type: cell-based; conditions: Table 2A; strain 447
Description: as §1

[11] = tested on: S. aureus 489; test: standard broth micro-dilution MIC; type: cell-based; conditions: Table 2A; strain 489
Description: as §1

[12] = tested on: S. aureus 491; test: standard broth micro-dilution MIC; type: cell-based; conditions: Table 2A; strain 491
Description: as §1

[13] = tested on: S. aureus S13E; test: standard broth micro-dilution MIC; type: cell-based; conditions: Table 2A; strain S13E
Description: as §1

[14] = tested on: S. aureus SA1199B; test: standard broth micro-dilution MIC; type: cell-based; conditions: Table 2B; strain SA1199B
Description: as §1

[15] = tested on: S. aureus SA1199R; test: standard broth micro-dilution MIC; type: cell-based; conditions: Table 2B; strain SA1199R
Description: as §1

[16] = tested on: S. aureus SA1199; test: standard broth micro-dilution MIC; type: cell-based; conditions: Table 2A; strain SA1199
Description: as §1

[17] = tested on: S. aureus X400; test: standard broth micro-dilution MIC; type: cell-based; conditions: Table 2A; strain X400
Description: as §1

[18] = tested on: S. aureus X778; test: standard broth micro-dilution MIC; type: cell-based; conditions: Table 2A; strain X778
Description: as §1

[19] = tested on: S. epi 270; test: standard broth micro-dilution MIC; type: cell-based; conditions: Table 2B; strain 270
Description: as §1

[20] = tested on: S. h. 105; test: standard broth micro-dilution MIC; type: cell-based; conditions: Table 2B; strain 105
Description: as §1

[21] = tested on: S. h. 415; test: standard broth micro-dilution MIC; type: cell-based; conditions: Table 2B; strain 415
Description: as §1

[22] = tested on: St. pneumo P1; test: standard broth micro-dilution MIC; type: cell-based; conditions: Table 2C; strain P1
Description: as §1

[23] = tested on: St. pyro C203; test: standard broth micro-dilution MIC; type: cell-based; conditions: Table 2C; strain C203
Description: as §1

[24] = tested on: H. influR D/BL+; type: cell-based, H. influ; conditions: Table 2C; strain RD/BL+
Description: as §1

[25] = tested on: vancomycin-resistant enterococci; test: mean geometric MIC, vancomycin-resistant enterococci, broth micro-dilution; type: cell-based, Enterococcus faecium and Enterococcus faecalis; conditions: Table 3, representative vancomycin-resistant enterococci
Description: as §1

[26] = tested on: vancomycin-sensitive enterococci; test: mean geometric MIC, vancomycin-sensitive enterococci, broth micro-dilution; type: cell-based, Enterococcus faecium and Enterococcus faecalis; conditions: Table 3, representative vancomycin-sensitive enterococci
Description: as §1

Row | Compound | MIC E. f. 180-1 [1] | MIC E. f. 180 [2] [µg/mL] | MIC E. f. 2041 [3] | MIC E. f. 276 [4] | MIC E. gall. 245 [5] | MIC EC14 [6] [µg/mL] | MIC M. cat M12 [8] | MIC S. aureus 446 [9] | MIC S. aureus 447 [10] [µg/mL] | MIC S. aureus 489 [11] | MIC S. aureus 491 [12] | MIC S. aureus S13E [13] | MIC S. aureus SA1199B [14] | MIC S. aureus SA1199R [15] | MIC S. aureus SA1199 [16] | MIC S. aureus X400 [17] | MIC S. aureus X778 [18] [µg/mL] | MIC S. epi 270 [19] | MIC S. h. 105 [20] | MIC S. h. 415 [21] [µg/mL] | further results
1 | CC(=O)NC1C(OC2c3ccc(c(Cl)c3)Oc3cc4cc(c3OC3OC(CO)C(O)C(O)C3NCc3ccc(-c5ccccc5)cc3)Oc3ccc(cc3Cl)CC3NC(=O)C(NCc5ccc(-c6ccccc6)cc5)c5ccc(O)c(c5)Oc5cc(O)cc(c5)C(NC3=O)C(=O)NC4C(=O)NC3C(=O)NC2C(=O)NC(C(=O)O)c2cc(O)cc(OC4OC(CO)C(O)C(O)C4O)c2-c2cc3ccc2O)OC(CO)C(O)C1O.O=C(O)C(F)(F)F (centres unmarked) [Example 1, Deacyl Teicoplanin, Bis(4-phenylbenzyl) Derivative] | ≤ .06 µg/mL | ≤ 06 | ≤ .06 µg/mL | ≤ .06 µg/mL | ≤ .06 µg/mL | > 64 | ≤ .06 µg/mL | 0.5 µg/mL | 2 | 0.125 µg/mL | 0.25 µg/mL | 0.25 µg/mL | 0.5 µg/mL | ≤ .06 µg/mL | 0.25 µg/mL | 0.25 µg/mL | 0.25 | 1 µg/mL | ≤ .06 µg/mL | 4 | MIC H. influ RD [7]: 64 µg/mL; MIC St. pneumo P1 [22]: ≤ .06 µg/mL; MIC St. pyro C203 [23]: ≤ .06 µg/mL; MIC H. influR D/BL+ [24]: 64 µg/mL
2 | CC(=O)NC1C(OC2c3ccc(c(Cl)c3)Oc3cc4cc(c3OC3OC(CO)C(O)C(O)C3N)Oc3ccc(cc3Cl)CC3NC(=O)C(NCc5ccc(-c6ccccc6)cc5)c5ccc(O)c(c5)Oc5cc(O)cc(c5)C(NC3=O)C(=O)NC4C(=O)NC3C(=O)NC2C(=O)NC(C(=O)O)c2cc(O)cc(OC4OC(CO)C(O)C(O)C4O)c2-c2cc3ccc2O)OC(CO)C(O)C1O (centres unmarked) [Example 2, Deacyl Teicoplanin, N^15-(4-phenylbenzyl) Derivative] | 0.25 µg/mL (≈ 0.132 µM) | 32 (≈ 16.9 µM) | ≤ .03 µg/mL | ≤ .03 µg/mL | 0.25 µg/mL (≈ 0.132 µM) | > 32 | 0.25 µg/mL (≈ 0.132 µM) | ≤ .03 µg/mL | 0.25 (≈ 0.132 µM) | ≤ .03 µg/mL | ≤ .03 µg/mL | ≤ .03 µg/mL | ≤ .03 µg/mL | ≤ .03 µg/mL | ≤ .03 µg/mL | ≤ .03 µg/mL | 0.125 (≈ 0.0661 µM) | 0.25 µg/mL (≈ 0.132 µM) | 0.25 µg/mL (≈ 0.132 µM) | 8 (≈ 4.23 µM) | MIC H. influ RD [7]: 16 µg/mL (≈ 8.46 µM); MIC St. pneumo P1 [22]: ≤ .03 µg/mL; MIC St. pyro C203 [23]: ≤ .03 µg/mL; MIC H. influR D/BL+ [24]: 32 µg/mL (≈ 16.9 µM); Resist. MIC [25]: > 32 µg/mL; Sens. MIC [26]: 2.6 µg/mL
3 | CC(=O)NC1C(OC2c3ccc(c(Cl)c3)Oc3cc4cc(c3OC3OC(CO)C(O)C(O)C3NCc3ccc(Oc5ccccc5)cc3)Oc3ccc(cc3Cl)CC3NC(=O)C(NCc5ccc(Oc6ccccc6)cc5)c5ccc(O)c(c5)Oc5cc(O)cc(c5)C(NC3=O)C(=O)NC4C(=O)NC3C(=O)NC2C(=O)NC(C(=O)O)c2cc(O)cc(OC4OC(CO)C(O)C(O)C4O)c2-c2cc3ccc2O)OC(CO)C(O)C1O (centres unmarked) [Example 10] | ≤ .06 µg/mL | 0.25 (≈ 0.12 µM) | ≤ .06 µg/mL | 0.5 µg/mL (≈ 0.239 µM) | 0.25 µg/mL (≈ 0.12 µM) | > 64 | ≤ .06 µg/mL | 0.25 µg/mL (≈ 0.12 µM) | 1 (≈ 0.478 µM) | 0.5 µg/mL (≈ 0.239 µM) | 1 µg/mL (≈ 0.478 µM) | 2 µg/mL (≈ 0.957 µM) | 0.5 µg/mL (≈ 0.239 µM) | ≤ .06 µg/mL | 2 µg/mL (≈ 0.957 µM) | 0.25 µg/mL (≈ 0.12 µM) | 0.5 (≈ 0.239 µM) | 0.5 µg/mL (≈ 0.239 µM) | > 64 µg/mL | 8 (≈ 3.83 µM) | MIC St. pneumo P1 [22]: 0.125 µg/mL (≈ 0.0598 µM); MIC St. pyro C203 [23]: ≤ .06 µg/mL; Resist. MIC [25]: 1.7 µg/mL; Sens. MIC [26]: 0.19 µg/mL
4 | CC(=O)NC1C(OC2c3ccc(c(Cl)c3)Oc3cc4cc(c3OC3OC(CO)C(O)C(O)C3NCc3cccc(Oc5ccccc5)c3)Oc3ccc(cc3Cl)CC3NC(=O)C(NCc5cccc(Oc6ccccc6)c5)c5ccc(O)c(c5)Oc5cc(O)cc(c5)C(NC3=O)C(=O)NC4C(=O)NC3C(=O)NC2C(=O)NC(C(=O)O)c2cc(O)cc(OC4OC(CO)C(O)C(O)C4O)c2-c2cc3ccc2O)OC(CO)C(O)C1O (centres unmarked) [Example 11] | 0.25 µg/mL (≈ 0.12 µM) | 1 (≈ 0.478 µM) | ≤ .06 µg/mL | 0.25 µg/mL (≈ 0.12 µM) | 0.125 µg/mL (≈ 0.0598 µM) | > 64 | ≤ .06 µg/mL | 2 µg/mL (≈ 0.957 µM) | 1 (≈ 0.478 µM) | 1 µg/mL (≈ 0.478 µM) | 0.25 µg/mL (≈ 0.12 µM) | 2 µg/mL (≈ 0.957 µM) | 0.25 µg/mL (≈ 0.12 µM) | ≤ .06 µg/mL | 0.5 µg/mL (≈ 0.239 µM) | 0.5 µg/mL (≈ 0.239 µM) | 0.25 (≈ 0.12 µM) | ≤ .06 µg/mL | > 64 µg/mL | 16 (≈ 7.66 µM) | MIC St. pneumo P1 [22]: ≤ .06 µg/mL; MIC St. pyro C203 [23]: ≤ .06 µg/mL; Resist. MIC [25]: 3.4 µg/mL; Sens. MIC [26]: 0.11 µg/mL
